Test results reported in US20240197650A1, “Combination of Cinnamaldheyde and Eugenol with Antimycotic Activity” (priority 2021, published 2024).
Values belong to the molecule of their own block, whether it stands above or below them.

What was measured:
Type in all cases: cell-based
Candida spp. = assay: Disk diffusion method, 18 Candida spp. strains (distribution); conditions: for inhibition rings diameter, average (including 6.0 mm of the disk) / inhibition rings diameter, range (including 6.0 mm of the disk) / % inhibited strains: 18 strains; for inhibition rings diameter, average (including 6.0 mm of the disk) / inhibition rings diameter, range (including 6.0 mm of the disk): disk 10 μl oil or 10 μg amphotericin B, 35° C. 24 hours; for inhibition of the tested Candida strains (words) / inhibition rings compared with those caused by amphotericin B (10 μg): disks soaked with the oils separately; for % inhibited strains: ring equal or greater than that of amphotericin B
Method: (§1) A total of eighteen strains belonging to Candida spp. (15 C. albicans, 2 C. glabrata and 1 C. lusitaniae) derived from a collection of vaginal strains isolated in CHROMAgar Candida (BD Italia SpA, Milan, Italy) were grown on Potato Dextrose Agar (Oxoid Thermofisher SpA, Milan, Italy) at 35° C. for 24 hours.
Colonies were re-suspended in sterile saline at a density corresponding to #0.5 McFarland (opacity standard). #0.5 McF correspond to 1.4×10^6 colony forming units (CFU)/ml for C. albicans, 4.3×10^6 CFU/ml for C. glabrata and 3×10^6 CFU/ml for C. lusitaniae [Guinea J. et al., Rapid antifungal susceptibility determination for yeast isolates by use of Etest performed directly on blood samples from patients with fungemia, J Clin Microbiol. 2010 June, 48(6): 2205-12]. Then, the sensitivity test vs the two oils has been performed. The disk diffusion method was carried out as follows: for each tested strain, 4 plates of Potato Dextrose Agar (PDA) were seeded in 3 directions to produce a confluent growth, by sterile swab soaked in the cell suspension. Sorbent paper disks (Oxoid Thermofisher SpA, Milan, Italy) 6.0 mm diameter were placed on the agar surface and added with 10 μl of each essential oil. Disks soaked with 10 μg amphotericin B were used as positive control. Also disks of chlortrimazole (from 10 μg to 40 μg) were used, but the inhibition rings could not be clearly read due to the formation of a re-growth ring. Disks soaked with 10 μl pure dimethylsulphoxide (DMSO, Sigma-Aldrich, St. Louis, MO, USA) were used as negative control. The plates were incubated at 35° C. for 24 hours. All the experiments were carried out in duplicate. The inhibiting effect of the oils were considered to be effective when the inhibition ring was equal or greater than that caused by amphotericin B. For amphotericin B, an inhibition zone (IZ)≥15 mm was considered as “sensitivity”, from 10 to 14 mm as “intermediate sensitivity” and <10 mm as “resistance” [Kauser et al., Agreement of Direct Antifungal Susceptibility Testing from Positive Blood Culture Bottles with Conventional Method for Candida Species, J Clin Microbiol. 2016 February, 54(2):343-34].

C. albicans = assay: Microdilution method MIC/MFC, C. albicans strains
Method: as §1
(§2) The antifungal activity of amphotericin B and of cinnamaldheyde and eugenol were tested with the microdilution method as reported by Bona et al. [Bona et al., Sensitivity of Candida albicans to essential oils: are they an alternative to antifungal agents? J Appl Microbiol. 2016 December, 121(6): 1530-1545] with small changes. All the 18 Candida spp strains were tested. For each isolated, the colonies deriving from cultures (24 hours) in PDA were diluted in saline up to a concentration of 2×10^3 CFU/ml (so obtaining a final concentration of 10 3CGU/ml). Cinnamaldehyde and eugenol were dissolved in DMSO (80% oil, 20% DMSO), then diluted in Sabouraud broth up to a concentration of 8% v/v (so obtaining a final concentration of 4% v/v). Then, in a 96-well microtiter plate ½ serial dilution of amphotericin B (range 32-0.032 μg/ml, for a final range of 16-0.016 μg/ml) and of the essential oils (range 8-0.004% v/v, for a final range of 4-0.002% v/v) were carried out. Each well was then injected with 100 μl of cell suspension. The negative control contained DMSO diluted in Sabouraud broth (at 2% v/v, for a final concentration of 1% v/v). […] Each experiment was carried out in duplicate. The Minimum Inhibitory Concentration (MIC) was determined as the concentration of the oils in the first well which is not cloudy. The Minimum Fungicidal Concentration (MFC) was determined as the lowest concentration of the oils, with the agar culture showing the complete absence of fungal growth. The determination of the amphotericin B MIC was carried out also according to the EUCAST guidelines (cutoff 1 μg/ml) [https://eucast.org/astoffungi/clinicalbreakpointsforantifungals], all the results being consistent.

C. glabrata = assay: Microdilution method MIC/MFC, C. glabrata strains
Method: as §1, §2

C. lusitaniae = assay: Microdilution method MIC/MFC, C. lusitaniae strain; conditions: C. lusitaniae 1
Method: as §1, §2

[1] = system: C. albicans strain (C.a. 15); assay: Time-kill curve; conditions: oil at its MFC, 2×10^5 CFU/ml C.a. 15, 35° C.
Method: A C. albicans strain (C.a. 15) was incubated with cinnamaldheyde and eugenol at their MFC. The C. albicans colonies were suspended in Sabouraud broth at a density corresponding to #1.4 McFarland (4×10^6 CFU/ml), then diluted 1/10 (4×10^5 CFU/ml, for a final concentration of 2×10^5 CFU/ml). The suspension was divided into aliquots, two aliquots were incubated with the oils (½ v/v) prepared at a concentration double of their MFC (for a final concentration equal to MFC); the third aliquot was diluted ½ with Sabouraud broth and was used as negative control. The mixtures were incubated at 35° C. on swinging plate. At T0, T1 h, T2 h, T4 h, T6 h, T8 h, T12 h and T24 h, 1/10 serial dilutions were carried out, to determine the total vital count (TVC). From each dilution, 100 μl were seeded in PDA and incubated at 35° C. for 24 hours, then the colonies were counted, their number expressed as CFU/ml. The test was carried out in duplicate.

Compound: O=CC=Cc1ccccc1 [Cinnamaldheyde, cinnamaldehyde]
- inhibition rings diameter, average (including 6.0 mm of the disk) (Candida spp.): 69 mm
- inhibition rings diameter, range (including 6.0 mm of the disk) (Candida spp.): 55-75 mm
- inhibition of the tested Candida strains (words) (Candida spp.): inhibited all tested strains
- inhibition rings compared with those caused by amphotericin B (10 μg) (Candida spp.): notably greater
- inhibition of the tested Candida strains (words) (Candida spp.; listed as cinnamaldheyde): inhibited the growth of all tested Candida strains
- % inhibited strains (Candida spp.): 100% (18/18)
- MFC (C. albicans; C. albicans 1): 0.008 % v/v
- MIC (C. albicans; C. albicans 1): 0.004 % v/v
- MFC (C. albicans; C. albicans 2): 0.008 % v/v
- MIC (C. albicans; C. albicans 2): 0.004 % v/v
- MFC (C. albicans; C. albicans 3): 0.004 % v/v
- MIC (C. albicans; C. albicans 3): 0.004 % v/v
- MFC (C. albicans; C. albicans 4): 0.008 % v/v
- MIC (C. albicans; C. albicans 4): ≤0.002 % v/v
- MFC (C. albicans; C. albicans 5): 0.004 % v/v
- MIC (C. albicans; C. albicans 5): 0.004 % v/v
- MFC (C. albicans; C. albicans 6): 0.008 % v/v
- MIC (C. albicans; C. albicans 6): 0.004 % v/v
- MFC (C. albicans; C. albicans 7): 0.008 % v/v
- MIC (C. albicans; C. albicans 7): ≤0.002 % v/v
- MFC (C. albicans; C. albicans 8): 0.008 % v/v
- MIC (C. albicans; C. albicans 8): 0.004 % v/v
- MFC (C. albicans; C. albicans 9): 0.064 % v/v
- MIC (C. albicans; C. albicans 9): 0.016 % v/v
- MFC (C. albicans; C. albicans 10): ≤0.002 % v/v
- MIC (C. albicans; C. albicans 10): ≤0.002 % v/v
- MFC (C. albicans; C. albicans 11): ≤0.002 % v/v
- MIC (C. albicans; C. albicans 11): ≤0.002 % v/v
- MFC (C. albicans; C. albicans 12): ≤0.002 % v/v
- MIC (C. albicans; C. albicans 12): ≤0.002 % v/v
- MFC (C. albicans; C. albicans 13): 0.016 % v/v
- MIC (C. albicans; C. albicans 13): 0.008 % v/v
- MFC (C. albicans; C. albicans 14): 0.016 % v/v
- MIC (C. albicans; C. albicans 14): 0.004 % v/v
- MFC (C. albicans; C. albicans 15): 0.008 % v/v
- MIC (C. albicans; C. albicans 15): 0.004 % v/v
- MFC (C. glabrata; C. glabrata 1): 0.008 % v/v
- MIC (C. glabrata; C. glabrata 1): 0.004 % v/v
- MFC (C. glabrata; C. glabrata 2): 0.016 % v/v
- MIC (C. glabrata; C. glabrata 2): 0.016 % v/v
- MFC (C. lusitaniae): ≤0.002 % v/v
- MIC (C. lusitaniae): ≤0.002 % v/v

- MIC (C. albicans; C. albicans 1): 0.032 % v/v
- MIC (C. albicans; C. albicans 2): 0.032 % v/v
- MIC (C. albicans; C. albicans 3): 0.016 % v/v
- MIC (C. albicans; C. albicans 4): 0.064 % v/v
- MIC (C. albicans; C. albicans 5): 0.008 % v/v
- MIC (C. albicans; C. albicans 6): 0.032 % v/v
- MIC (C. albicans; C. albicans 7): 0.032 % v/v
- MIC (C. albicans; C. albicans 8): 0.032 % v/v
- MIC (C. albicans; C. albicans 9): 0.125 % v/v
- MIC (C. albicans; C. albicans 10): 0.016 % v/v
- MIC (C. albicans; C. albicans 11): 0.064 % v/v
- MIC (C. albicans; C. albicans 12): 0.016 % v/v
- MIC (C. albicans; C. albicans 13): 0.064 % v/v
- MIC (C. albicans; C. albicans 14): 0.032 % v/v
- MIC (C. albicans; C. albicans 15): 0.032 % v/v
- MIC (C. glabrata; C. glabrata 1): 0.032 % v/v
- MIC (C. glabrata; C. glabrata 2): 0.125 % v/v
- MIC (C. lusitaniae): 0.032 % v/v
Compound: C=CCc1ccc(O)c(OC)c1 [Eugenol, eugenol]
- inhibition rings diameter, average (including 6.0 mm of the disk) (Candida spp.): 35.2 mm
- inhibition rings diameter, range (including 6.0 mm of the disk) (Candida spp.): 30.5-41 mm
- inhibition of the tested Candida strains (words) (Candida spp.): inhibited the growth of all tested Candida strains
- inhibition rings compared with those caused by amphotericin B (10 μg) (Candida spp.): notably greater
- % inhibited strains (Candida spp.): 100% (18/18)
- MFC (C. albicans; C. albicans 1): 0.032 % v/v
- MFC (C. albicans; C. albicans 2): 0.032 % v/v
- MFC (C. albicans; C. albicans 3): 0.032 % v/v
- MFC (C. albicans; C. albicans 4): 0.064 % v/v
- MFC (C. albicans; C. albicans 5): 0.032 % v/v
- MFC (C. albicans; C. albicans 6): 0.032 % v/v
- MFC (C. albicans; C. albicans 7): 0.064 % v/v
- MFC (C. albicans; C. albicans 8): 0.032 % v/v
- MFC (C. albicans; C. albicans 9): 0.125 % v/v
- MFC (C. albicans; C. albicans 10): 0.016 % v/v
- MFC (C. albicans; C. albicans 11): 0.125 % v/v
- MFC (C. albicans; C. albicans 12): 0.064 % v/v
- MFC (C. albicans; C. albicans 13): 0.125 % v/v
- MFC (C. albicans; C. albicans 14): 0.125 % v/v
- MFC (C. albicans; C. albicans 15): 0.064 % v/v
- MFC (C. glabrata; C. glabrata 1): 0.032 % v/v
- MFC (C. glabrata; C. glabrata 2): 0.125 % v/v
- MFC (C. lusitaniae): 0.064 % v/v
- time to kill all the fungal cells [1]: within the first hour
- time to kill all the fungal cells ([1]; listed as eugenol): 1 h
